Source: patent US6696409B1 (priority 1996, dated 2004)
Marks after values point to notes of the source that are not given here.

What was measured:
human Y1 receptor = target: T1, human Y1 receptor (Homo sapiens, UniProt P25929); experiment: [125I]NPY receptor binding assay on SK-N-MC cells
T1 construct: host or cells: SK-N-MC cells (thawed, needle-disrupted cells)
T1 sequence (P25929 1-384): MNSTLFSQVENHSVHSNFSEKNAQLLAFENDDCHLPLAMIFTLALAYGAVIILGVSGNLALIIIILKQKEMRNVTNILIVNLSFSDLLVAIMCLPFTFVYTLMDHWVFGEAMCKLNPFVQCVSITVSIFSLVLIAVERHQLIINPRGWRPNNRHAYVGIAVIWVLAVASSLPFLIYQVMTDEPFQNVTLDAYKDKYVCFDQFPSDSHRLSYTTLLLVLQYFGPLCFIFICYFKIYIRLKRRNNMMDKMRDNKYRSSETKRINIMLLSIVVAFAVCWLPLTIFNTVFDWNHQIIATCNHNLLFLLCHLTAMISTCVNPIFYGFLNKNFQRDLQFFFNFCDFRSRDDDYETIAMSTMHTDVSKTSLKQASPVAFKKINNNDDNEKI
Protocol: (§1) SK-N-MC cells expressing the human Y1 receptor and SMS-MSN cells expressing the human Y2 receptor were obtained from the ATCC. They were cultured in 1:1 DMEM:Ham's F12 medium (ICN) containing 10% fetal calf serum, 0.1% non-essential amino acids, 0.2 mM glutamine, and 0.056% sodium bicarbonate. Confluent cells were harvested in scraping and pellets were stored at −80° C. On the day of use cells were thawed, washed once in binding buffer salts, passed several times through a 22 ga. needle, and the protein content was assayed using bicinchoninic acid (BCA kit, Pierce).
(§2) Just before use, plates were filtered and washed twice with 50 mM Tris-HCI pH 7.4/0.1% BSA. […] Binding was terminated by filtration. Filters were washed twice by rapid filtration with […] volumes of 50 mM Tris-HCI pH 7.4/0.1% BSA at 2° C., and counted on an LKB gamma counter. Specific binding was analysed by non-linear regression using a single-site fitting function (Graphpad Prism). Non-specific binding was defined by binding in the presence of 1 μM competitor.

Y2-like receptors = target: T2, Y2-like receptors (Rattus norvegicus, UniProt Q9ERC0); experiment: Inhibition of the vagally evoked increase in pulse interval in anaesthetised rats (prejunctional activity); format: in vivo; details: compared with Ac[Leu28,Leu31]NPY(24-36)
T2 construct: from tissue; host or cells: anaesthetised Wistar rat, cardiac vagal nerve endings (in vivo)
T2 sequence (Q9ERC0 1-381): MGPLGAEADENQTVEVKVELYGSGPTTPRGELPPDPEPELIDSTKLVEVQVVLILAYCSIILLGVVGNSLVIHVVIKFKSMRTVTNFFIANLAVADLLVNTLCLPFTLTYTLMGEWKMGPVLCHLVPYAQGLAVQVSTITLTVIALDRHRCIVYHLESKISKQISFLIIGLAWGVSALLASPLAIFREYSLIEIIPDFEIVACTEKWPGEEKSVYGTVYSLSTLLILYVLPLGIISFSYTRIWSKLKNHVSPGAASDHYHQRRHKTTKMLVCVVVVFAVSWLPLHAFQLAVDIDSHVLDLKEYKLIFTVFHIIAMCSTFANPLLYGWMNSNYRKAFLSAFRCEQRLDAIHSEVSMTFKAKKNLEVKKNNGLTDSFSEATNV
Protocol: (§3) Experiments were carried out on adult rats (Wistar) of both sexes (250-350 g), anaesthetised with sodium pentobarbitone (Nembutal, Boehringer-Ingleheim; 60 mg/kg, i.p.). The trachea was cannulated and the animal artificially ventilated. The femoral vein was cannulated for administration of peptides and further doses of anaesthetic. The left femoral artery was cannulated to record arterial pressure. Both vagus nerves were cut. […] The frequency was chosen to increase pulse interval by approximately 100 ms, a submaximal effect on this variable. The electrocardiogram was measured using needle electrodes and monitored on one channel of an osciloscope. Pulse interval (the period between successive beats of the heart) was recorded beat-by-beat by triggering from ECG. Pulse interval and arterial pressure were recorded on the pen recorder.
Dose-response curves were constructed from group data for all rats. Because of the long time-course of action of the peptides tested, not all peptides were given to each rat. Usually however, each rat received neuropeptide Y and two other peptides.
(§4) As an indication of prejunctional activity two parameters were measured; the maximum percent inhibition of the increase in pulse interval evoked by stimulation of the vagus nerve following injection of peptide and the time to half recovery of this effect (T50). For pressor action, an indicator of postjunctional activity, two parameters were also measured; the peak pressor response following injection of peptide and the duration of the increase in blood pressure. These indices give a reliable measure of the actions of a peptide at pre- and postjunctional sites, and have been used previously in this laboratory for this purpose; Potter et al., 1989; Potter et al., 1991). Results were analysed using a one-way ANOVA.

Y1 receptors = target: T3, Y1 receptors (Rattus norvegicus, UniProt P21555); experiment: Pressor response (increase in blood pressure) in anaesthetised rats (postjunctional activity); format: in vivo
T3 construct: from tissue; host or cells: anaesthetised Wistar rat, vasculature (in vivo)
T3 sequence (P21555 1-382): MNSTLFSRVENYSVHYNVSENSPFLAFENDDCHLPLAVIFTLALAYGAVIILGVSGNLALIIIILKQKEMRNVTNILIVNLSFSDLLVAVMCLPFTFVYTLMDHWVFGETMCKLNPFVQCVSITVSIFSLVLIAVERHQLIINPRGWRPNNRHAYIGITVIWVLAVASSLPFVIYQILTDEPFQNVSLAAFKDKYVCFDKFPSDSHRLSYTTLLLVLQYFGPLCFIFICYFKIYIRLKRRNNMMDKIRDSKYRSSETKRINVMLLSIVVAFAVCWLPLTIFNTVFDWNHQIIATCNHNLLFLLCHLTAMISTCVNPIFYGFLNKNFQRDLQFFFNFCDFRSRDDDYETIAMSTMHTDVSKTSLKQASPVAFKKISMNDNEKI
Protocol: as §3, with “The” for “The frequency was chosen to increase pulse interval by approximately 100 ms, a submaximal effect on this variable. The”
Dose-response curves were constructed from group data for all rats. Because of the long time-course of action of the peptides tested, not all peptides were given to each rat.
as §4, with “These indices give a reliable measure of the actions of a peptide at pre- and postjunctional sites, and have been used previously in this laboratory for this purpose; Potter et al., 1989; Potter et al., 1991).” left out

human Y2 receptor = target: T4, human Y2 receptor (Homo sapiens, UniProt P49146); experiment: [125I]NPY receptor binding assay on SMS-MSN cells
T4 construct: host or cells: SMS-MSN cells (thawed, needle-disrupted cells)
T4 sequence (P49146 1-381): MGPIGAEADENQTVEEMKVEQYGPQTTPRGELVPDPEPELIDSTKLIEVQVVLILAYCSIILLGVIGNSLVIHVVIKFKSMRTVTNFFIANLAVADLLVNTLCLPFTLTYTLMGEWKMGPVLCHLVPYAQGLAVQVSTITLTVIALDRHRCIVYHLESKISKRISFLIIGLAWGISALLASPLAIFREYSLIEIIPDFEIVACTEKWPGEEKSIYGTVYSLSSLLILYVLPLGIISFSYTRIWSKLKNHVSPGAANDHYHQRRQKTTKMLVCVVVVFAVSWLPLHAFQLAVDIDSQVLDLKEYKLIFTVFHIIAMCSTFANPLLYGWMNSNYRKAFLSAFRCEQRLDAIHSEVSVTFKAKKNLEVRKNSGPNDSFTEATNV
Protocol: as §1, §2

[1] = tested on: Y2-like receptors mediating inhibition of transmitter release from renal nerves; experiment: Increase of renal vascular resistance elicited by renal sympathetic nerve stimulation; format: in vivo, dog; details: 40 nmol dose; FIG. 1
Protocol: Experiments were carried out in six, adult, mongrel dogs of both sexes weighing between 18 and 26 kg. The dogs were anaesthetised with a bolus injection of sodium pentobarbitone (36 mg/kg intravenous; Nembutal, Boehringer Ingelheim) and then maintained on an infusion (2-3 mg/kg/hr). The animal was artificially ventilated, maintained at constant temperature and blood pressure and heart rate were monitored continuously.
The left kidney was exposed retroperitoneally and renal arterial blood flow was monitored continuously (Pernow & Lundberg, 1989a), using a transonic flow probe (Transonic System Inc., N.Y.). Postganglionic nerves to the kidney were isolated, cut and placed over bipolar, platinum electrodes for stimulation (1-10 Hz, 5-10 V, 1-5 msec).
The renal nerve was stimulated over a range of frequencies (1-10 Hz) for 30 secs and a frequency-response curve constructed. The responses were measured at the peak change in flow. […] Responses were reported as change in vascular resistance.

[2] = target: T5, human neuropeptide Y Y1 receptor (Homo sapiens, UniProt P25929); details: fibroblast cells; cited from earlier work
T5 sequence (P25929 1-384): T1 sequence (P25929 1-384)

[3] = target: T6, neuropeptide Y Y1 receptor type (Homo sapiens, UniProt P25929); details: SK-N-MC cells; cited from earlier work
T6 construct: host or cells: SK-N-MC human cells
T6 sequence (P25929 1-384): T1 sequence (P25929 1-384)

[4] = target: T7, neuropeptide Y Y2 receptor subtype (Homo sapiens, UniProt P49146); details: SMS-KAN cells; cited from earlier work
T7 construct: host or cells: SMS-KAN human neuroblastoma cells
T7 sequence (P49146 1-381): T4 sequence (P49146 1-381)

[5] = anaesthetised rats, †: No response to 10 nmole dose

Substance	Increase in BP (rel to NPY) (Y1 receptors; [5])	also measured
Ac-ARAALNAATRQRY-NH2 [Ac[A24,26,27,30,31,L28]NPY24-36]	0†	IC50 (human Y1 receptor): > 1000 nM; Inhibition of the effect of vagal stimulation on heart rate, in words (Y2-like receptors): enhanced in vivo activity at Y2 receptors
Ac-ARHALNLLTRQRY-NH2 [Ac[A24,A27,L28,L31]NPY24-36]	0†	Inhibition of the effect of vagal stimulation on heart rate, in words (Y2-like receptors): enhanced in vivo activity at Y2 receptors; Affinity for NPY Y2 receptors, in words (human Y2 receptor): high affinity for NPY Y2 receptors; Inhibition of the increase of renal vascular resistance elicited by renal nerve stimulation [1]: almost completely inhibited the effect of nerve stimulation; Direct effect on the circulation (Y1 receptors; 40 nmol dose): no direct effect on the circulation
Ac-ARHYLNLLTRQRY-NH2 [Ac[A24,L28,L31]NPY24-36]	0†	IC50 (human Y2 receptor): 19.3 nM
Ac-LAHYLNLLTRQRY-NH2 [Ac[A25,L28,L31]NPY24-36]	0†	
Ac-LAHYRNLLTRQRY-NH2 [Ac[A25,R28,L31]NPY24-36]	0†	
Ac-LRAYLNLLTRQRY-NH2 [Ac[A26,L28,L31]NPY24-36]	0†	
Ac-LRHALNLLTRQRY-NH2 [Ac[A27,L28,L31]NPY24-36]	0†	
Ac-LRHYANLLTRQRY-NH2 [Ac[A28,L31]NPY24-36]	0†	
Ac-LRHYLALLTRQRY-NH2 [Ac[L28,A29,L31]NPY24-36]	0†	
Ac-LRHYLNALTRQRY-NH2 [Ac[L28,A30,L31]NPY24-36]	0†	
Ac-LRHYLNLATRQRY-NH2 [Ac[L28,A31]NPY24-36]	0†	
Ac-LRHYLNLLARQRY-NH2 [Ac[L28,L31,A32]NPY24-36]	0†	
Ac-LRHYLNLLTRQRY-NH2 [Ac[L28,L31]NPY24-36] [listing 1 of 2 here]		Stimulation of the Y1 receptor to induce an increase in cytosolic calcium [2]: did not stimulate; Affinity for the neuropeptide Y Y1 receptor type, in words [3]: no affinity; Affinity for the neuropeptide Y Y2 receptor subtype, in words [4]: significant affinity; Increase in BP (rel to NPY) (Y1 receptors; rat, in vivo): 0†
Ac-LRHYLNLLTRQRY-NH2 [Ac[L28,L31]NPY24-36] [listing 2 of 2 here]		IC50 (human Y1 receptor): > 100 nM
AcNPY24-36 [reference compound]	0†	
Ac[A26,27,L28,31]NPY24-36 (Ac-LRAALNLLTRQRY-NH2; ends and bridges not checked)		Inhibition of the effect of vagal stimulation on heart rate, in words (Y2-like receptors): enhanced in vivo activity at Y2 receptors
Ac[L28,I30]NPY24-36 (Ac-LRHYLNIITRQRY-NH2; ends and bridges not checked; UniProt P01303 52-64, looked up, variant I28L L30I)	0†	
